Assay [1] deals with T1, Recombinant human NK3 (hNK3) receptor (Homo sapiens, UniProt P29371).
T1 construct: expressed in transfected cells; membrane preparations of the recombinant receptor
T1 sequence (P29371 1-465): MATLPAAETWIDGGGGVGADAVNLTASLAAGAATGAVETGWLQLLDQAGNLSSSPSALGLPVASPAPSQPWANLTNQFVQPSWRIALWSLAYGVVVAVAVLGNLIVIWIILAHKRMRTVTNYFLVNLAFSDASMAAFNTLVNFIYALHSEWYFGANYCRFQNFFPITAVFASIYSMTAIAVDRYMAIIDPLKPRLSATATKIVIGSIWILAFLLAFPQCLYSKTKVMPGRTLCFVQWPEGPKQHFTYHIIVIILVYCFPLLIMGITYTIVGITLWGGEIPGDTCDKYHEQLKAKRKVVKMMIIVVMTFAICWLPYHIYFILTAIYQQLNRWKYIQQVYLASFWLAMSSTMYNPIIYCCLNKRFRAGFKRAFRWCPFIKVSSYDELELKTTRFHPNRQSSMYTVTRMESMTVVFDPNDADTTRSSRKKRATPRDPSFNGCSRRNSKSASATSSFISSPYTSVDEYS
Kind of assay: NK3 receptor binding assay, [3H]SR142801 displacement. Conditions: hNK3 receptor membranes, [3H]SR142801 0.3 nM. On the procedure:
Recombinant human NK3 (hNK3) receptor affinity was determined in a 96 well plate assay, using [^3H]SR142801 (final concentration 0.3 nM) to radiolabel the hNK3 receptor in the presence of 10 concentrations of competing compound or buffer. Non specific binding was determined using 10 μM SB222200. Assay buffer consisted of Tris-HCl (50 mM, pH 7.4), BSA (0.1%), MnCl2 (4 mM) and phosphoramidon (1 μM). Membrane preparations of hNK3 receptors (approximately 2.5 μg/well in a 96 well plate) were used to initiate the incubation for 90 min at room temperature. This assay was terminated by rapid filtration under vacuum through GF/C filters, presoaked for 90 min with PEI (0.3%), with 3×0.5 ml washes of ice-cold Tris buffer (50 mM, pH 7.4) containing 0.1% BSA. The radioactivity retained on the filters was measured by scintillation counting. All assays were performed in duplicate in at least two separate experiments.

In another assay the target is T2, human NK1 receptor (Homo sapiens, UniProt P25103).
T2 construct: expressed in transfected cells; host or cells: CHO cells (Semliki virus expression system), membrane suspension
T2 sequence (P25103 whole entry): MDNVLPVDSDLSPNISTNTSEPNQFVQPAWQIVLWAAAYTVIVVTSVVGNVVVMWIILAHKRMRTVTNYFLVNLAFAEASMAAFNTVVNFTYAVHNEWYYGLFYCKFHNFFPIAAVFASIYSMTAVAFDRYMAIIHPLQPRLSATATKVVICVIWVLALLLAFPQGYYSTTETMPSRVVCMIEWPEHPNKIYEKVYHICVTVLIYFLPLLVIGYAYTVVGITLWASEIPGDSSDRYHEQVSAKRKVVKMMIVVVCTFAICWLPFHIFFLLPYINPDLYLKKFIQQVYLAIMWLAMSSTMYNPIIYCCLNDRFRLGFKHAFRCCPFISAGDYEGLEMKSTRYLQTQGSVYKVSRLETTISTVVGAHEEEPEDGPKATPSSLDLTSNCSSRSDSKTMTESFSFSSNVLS
Kind of assay: NK1 receptor binding assay, [3H]substance P displacement. Conditions: human NK1 receptors in CHO cells, [3H]substance P 0.6 nM.

The Ki is the dissociation constant of the complex between target and ligand, obtained from inhibition or displacement.

In the case of `CC(=O)n1ncc2c(-c3ccc(F)cc3C)c(N(C)C(=O)C(C)(C)c3cc(C(F)(F)F)cc(C(F)(F)F)c3)cnc21` [Example 31, N-[1-Acetyl-4-(4-fluoro-2-methyl-phenyl)-1H-pyrazolo[3,4-b]pyridin-5-yl]-2-(3,5-bis-trifluoromethyl-phenyl)-N-methyl-isobutyramide], the inhibition constant (Ki) in assay [1] came to 12.9 nM; on human NK1 receptor it was 1.2 nM.

`Cc1cc(F)ccc1-c1c(N(C)C(=O)C(C)(C)c2cc(C(F)(F)F)cc(C(F)(F)F)c2)cnc2c1cnn2Cc1ccccc1` [Example 11, N-[1-Benzyl-4-(4-fluoro-2-methyl-phenyl)-1H-pyrazolo[3,4-b]pyridin-5-yl]-2-(3,5-bis-trifluoromethyl-phenyl)-N-methyl-isobutyramide]: the Ki in assay [1] turned out to be 77 nM; at human NK1 receptor, 1.3 nM.

For `CCn1ncc2c(-c3cccc(Cl)c3Cl)c(N(C)C(=O)C(C)(C)c3cc(C(F)(F)F)cc(C(F)(F)F)c3)cnc21` [Example 18, 2-(3,5-Bis-trifluoromethyl-phenyl)-N-[4-(2,3-dichloro-phenyl)-1-ethyl-1H-pyrazolo[3,4-b]pyridin-5-yl]-N-methyl-isobutyramide], the Ki in assay [1] is 45.3 nM.

As for `CCn1ncc2c(-c3cc(CO)ccc3Cl)c(N(C)C(=O)C(C)(C)c3cc(C(F)(F)F)cc(C(F)(F)F)c3)cnc21` [Example 22, 2-(3,5-Bis-trifluoromethyl-phenyl)-N-[4-(2-chloro-5-hydroxymethyl-phenyl)-1-ethyl-1H-pyrazolo[3,4-b]pyridin-5-yl]-N-methyl-isobutyramide], the Ki in assay [1] came to 4.8 nM; on human NK1 receptor it was 2.5 nM.

As to `CCn1ncc2c(-c3cccnc3C)c(N(C)C(=O)C(C)(C)c3cc(C(F)(F)F)cc(C(F)(F)F)c3)cnc21` [Example 25, 2-(3,5-Bis-trifluoromethyl-phenyl)-N-[1-ethyl-4-(2-methyl-pyridin-3-yl)-1H-pyrazolo[3,4-b]pyridin-5-yl]-N-methyl-isobutyramide], the Ki on human NK1 receptor came to 522 nM.

`CCn1ncc2c(-c3cccc(F)c3Cl)c(N(C)C(=O)C(C)(C)c3cc(C(F)(F)F)cc(C(F)(F)F)c3)cnc21` [Example 14, 2-(3,5-Bis-trifluoromethyl-phenyl)-N-[4-(2-chloro-3-fluoro-phenyl)-1-ethyl-1H-pyrazolo[3,4-b]pyridin-5-yl]-N-methyl-isobutyramide]: the Ki in assay [1] was 38.7 nM; at human NK1 receptor, 1.6 nM.

Take `Cc1cc(F)ccc1-c1c(N(C)C(=O)C(C)(C)c2cc(C(F)(F)F)cc(C(F)(F)F)c2)cnc2c1cnn2C(=O)C1CC1` [Example 33, 2-(3,5-Bis-trifluoromethyl-phenyl)-N-[1-cyclopropanecarbonyl-4-(4-fluoro-2-methyl-phenyl)-1H-pyrazolo[3,4-b]pyridin-5-yl]-N-methyl-isobutyramide]: the Ki in assay [1] is 9.9 nM; on human NK1 receptor, 1.6 nM.

Turning to `CCn1ncc2c(-c3cc(F)ccc3C)c(N(C)C(=O)C(C)(C)c3cc(C(F)(F)F)cc(C(F)(F)F)c3)cnc21` [Example 13, 2-(3,5-Bis-trifluoromethyl-phenyl)-N-[1-ethyl-4-(5-fluoro-2-methyl-phenyl)-1H-pyrazolo[3,4-b]pyridin-5-yl]-N-methyl-isobutyramide], the Ki was determined as 160 nM in assay [1] and 7.9 nM on human NK1 receptor.

For `CCn1ncc2c(-c3ccccc3)c(N(C)C(=O)C(C)(C)c3cc(C(F)(F)F)cc(C(F)(F)F)c3)cnc21` [Example 10, 2-(3,5-Bis-trifluoromethyl-phenyl)-N-(1-ethyl-4-phenyl-1H-pyrazolo[3,4-b]pyridin-5-yl)-N-methyl-isobutyramide], the values for the Ki (in assay [1]; on human NK1 receptor) were 532 nM and 2.5 nM, respectively.

For the compound `CCn1ncc2c(-c3cccc(F)c3F)c(N(C)C(=O)C(C)(C)c3cc(C(F)(F)F)cc(C(F)(F)F)c3)cnc21` [Example 9, 22-(3,5-Bis-trifluoromethyl-phenyl)-N-[4-(2,3-difluoro-phenyl)-1-ethyl-1H-pyrazolo[3,4-b]pyridin-5-yl]-N-methyl-isobutyramide], the Ki in assay [1] is 779 nM; at human NK1 receptor it was 10.2 nM.

On to `CCn1ncc2c(-c3ccc(F)cc3C)c(N(C)C(=O)C(C)(C)c3cc(C(F)(F)F)cc(C(F)(F)F)c3)cnc21` [Example 2, 2-(3,5-Bis-trifluoromethyl-phenyl)-N-[1-ethyl-4-(4-fluoro-2-methyl-phenyl)-1H-pyrazolo[3,4-b]pyridin-5-yl]-N-methyl-isobutyramide], for which the Ki in assay [1] turned out to be 25.7 nM; at human NK1 receptor, 1.1 nM.

Take `CCn1ncc2c(-c3cscc3C)c(N(C)C(=O)C(C)(C)c3cc(C(F)(F)F)cc(C(F)(F)F)c3)cnc21` [Example 21, 2-(3,5-Bis-trifluoromethyl-phenyl)-N-[1-ethyl-4-(4-methyl-thiophen-3-yl)-1H-pyrazolo[3,4-b]pyridin-5-yl]-N-methyl-isobutyramide]: the Ki in assay [1] is 1.2 nM; at human NK1 receptor, 92 nM.

Consider `CCn1ncc2c(-c3cccc(Cl)c3)c(N(C)C(=O)C(C)(C)c3cc(C(F)(F)F)cc(C(F)(F)F)c3)cnc21` [Example 17, 2-(3,5-Bis-trifluoromethyl-phenyl)-N-[4-(3-chloro-phenyl)-1-ethyl-1H-pyrazolo[3,4-b]pyridin-5-yl]-N-methyl-isobutyramide], for which the Ki in assay [1] stood at 355 nM; at human NK1 receptor it was 4.2 nM.

Regarding `Cc1cc(F)ccc1-c1c(N(C)C(=O)C(C)(C)c2cc(C(F)(F)F)cc(C(F)(F)F)c2)cnc2c1cnn2CC(F)F` [Example 6, 2-(3,5-Bis-trifluoromethyl-phenyl)-N-[1-(2,2-difluoro-ethyl)-4-(4-fluoro-2-methyl-phenyl)-1H-pyrazolo[3,4-b]pyridin-5-yl]-N-methyl-isobutyramide], the figures for the Ki (in assay [1]; at human NK1 receptor) were 6.8 nM and 0.9 nM, respectively.

For the compound `CCn1ncc2c(-c3ccc(F)cc3C)c(N(C)C(=O)C(C)(C)c3cc(F)cc(C(F)(F)F)c3)cnc21` [Example 26, 2-(3-fluoro-5-trifloromethyl-phenyl)-N-[1-ethyl-4-(4-fluoro-2-methyl-phenyl)-1H-pyrazolo[3,4-b]pyridin-5-yl]-N-methyl-isobutyramide], the Ki in assay [1] was found to be 94.2 nM; on human NK1 receptor, 4.2 nM.

With `CCn1ncc2c(-c3ccc(F)cc3C)c(NC(=O)C(C)(C)c3cc(C(F)(F)F)cc(C(F)(F)F)c3)cnc21` [Example 5, 2-(3,5-Bis-trifluoromethyl-phenyl)-N-[1-ethyl-4-(4-fluoro-2-methyl-phenyl)-1H-pyrazolo[3,4-b]pyridin-5-yl]-isobutyramide], the Ki in assay [1] is 200 nM; on human NK1 receptor, 6 nM.

`CCn1ncc2c(-c3ccc(F)cc3C)c(N(C)C(=O)C(C)(C)c3cc(Cl)cc(Cl)c3)cnc21` [Example 27, 2-(3,5-Dichloro-phenyl)-N-[1-ethyl-4-(4-fluoro-2-methyl-phenyl)-1H-pyrazolo[3,4-b]pyridin-5-yl]-N-methyl-isobutyramide]: the values for the Ki (in assay [1]; at human NK1 receptor) were 35.1 nM and 2.6 nM, respectively.

Consider `Cc1cc(F)ccc1-c1c(N(C)C(=O)C(C)(C)c2cc(C(F)(F)F)cc(C(F)(F)F)c2)cnc2c1cnn2S(C)(=O)=O` [Example 36, 2-(3,5-Bis-trifluoromethyl-phenyl)-N-[4-(4-fluoro-2-methyl-phenyl)-1-methanesulfonyl-1H-pyrazolo[3,4-b]pyridin-5-yl]-N-methyl-isobutyramide], for which the results for the Ki (in assay [1]; on human NK1 receptor) were 15.1 nM and 0.6 nM, respectively.

For `CCn1ncc2c(-c3ccc(F)cc3OC)c(N(C)C(=O)C(C)(C)c3cc(C(F)(F)F)cc(C(F)(F)F)c3)cnc21` [Example 12, 2-(3,5-Bis-trifluoromethyl-phenyl)-N-[1-ethyl-4-(4-fluoro-2-methoxy-phenyl)-1H-pyrazolo[3,4-b]pyridin-5-yl]-N-methyl-isobutyramide], the Ki in assay [1] came out at 41.4 nM; on human NK1 receptor, 0.7 nM.

Turning to `Cc1cc(F)ccc1-c1c(N(C)C(=O)C(C)(C)c2cc(C(F)(F)F)cc(C(F)(F)F)c2)cnc2c1cnn2CC(=O)N1CCCC1` [Example 34, 2-(3,5-Bis-trifluoromethyl-phenyl)-N-[4-(4-fluoro-2-methyl-phenyl)-1-(2-oxo-2-pyrrolidin-1-yl-ethyl)-1H-pyrazolo[3,4-b]pyridin-5-yl]-N-methyl-isobutyramide], the Ki in assay [1] came to 39.5 nM.

`Cc1cc(F)ccc1-c1c(N(C)C(=O)C(C)(C)c2cc(C(F)(F)F)cc(C(F)(F)F)c2)cnc2c1cnn2CC(=O)N(C)C` [Example 35, 2-(3,5-Bis-trifluoromethyl-phenyl)-N-[1-dimethylcarbamoylmethyl-4-(4-fluoro-2-methyl-phenyl)-1H-pyrazolo[3,4-b]pyridin-5-yl]-N-methyl-isobutyramide]: in assay [1], the Ki was found to be 93.9 nM.

The values above are taken from US8487102B2, “Pyrrazolopyridine compounds as dual NK1/NK3 receptor antagonists” (Hoffmann-La Roche Inc., priority 2010, dated 2013).
